Key:
Type in all cases: cell-based
rat mesangium cells [1] = test: Suppressive activity of galectin-3 on the cellular death of rat mesangium cells (MTS tetrazolium conversion); conditions: 50 μg/ml galectin-3; presence and absence of 0.4 ng/ml TGF-β; day 1-4; FIG. 3
Procedure: Rat mesangium cells were separated from Sprague-Dawley rats according to the method of Striker et al. (Striker, G. E., et al., Lab. Invest. (1985) 53; 123-128). The separated rat mesangium cells were cultured at 37° C. in the presence of 5% CO2 in the wells of a 96-well plate using an essential medium (DMEM/F12 (1:1) culture medium containing 60 μg/ml penicillin, 100 μg/ml streptomycin, manufactured by Gibco BRL) supplemented with 10% fetal bovine serum. After culturing to semi-confluence, the cultured rat mesangium cells were washed with the essential medium, cultured for 2 days in the essential medium supplemented with 0.1% bovine serum albumin (Sigma), and then were further cultured for 1 to 4 days in the essential medium supplemented with 0.1% bovine serum albumin (Sigma) containing 0 or 50 μg/ml galectin-3 and 0 or 0.4 ng/ml TGF-β. On day 1, 2, 3, and 4 after the addition of galectin-3 and TGF-β, the amount of the cultured rat mesangium cells that survived in their respective wells were measured using as an index the conversion from MTS tetrazolium (Cell Titer 96 Aqueous one solution manufactured by Promega) to formazan by the living cells.

rat mesangium cells [2] = test: Promoting effect of galectin-3 on collagen type IV production by mesangium cells (sandwich ELISA); conditions: 10 or 30 μg/ml galectin-3; 0-1.6 ng/ml TGF-β; day 3; FIG. 4
Procedure: Rat mesangium cells were separated in a similar manner to that of Example 3. The separated mesangium cells were cultured at 37° C. in the presence of 5% CO2 in the wells of a 96-well plate using an essential medium (DMEM/F12 (1:1) culture medium containing 60 μg/ml penicillin, 100 μg/ml streptomycin, manufactured by Gibco BRL) supplemented with 10% fetal bovine serum. After culturing to confluence, the cultured rat mesangium cells were washed with the essential medium, cultured for 1 to 2 days in the essential medium supplemented with 0.1% bovine serum albumin (Sigma), and then were further cultured for 3 days in the essential medium supplemented with 0.1% bovine serum albumin (Sigma) containing 0, 10 or 30 μg/ml galectin-3 and 0, 0.1, 0.4 or 1.6 ng/ml TGF-β. On day 3 after the addition of galectin-3 and TGF-β, the amount of type IV collagen accumulated in the culture liquid was measured using a sandwich ELISA method that employed a goat anti-type IV collagen antibody as the immobilized antibody and a biotin-labeled goat anti-type IV collagen antibody (Chemicon) as the primary antibody. The amount of type IV collagen in the culture liquid of each well was normalized by dividing it by the amount of the living cells in each well determined in a similar manner to that described in Example 3.

galectin-3 = galectin-3 (Homo sapiens, UniProt P17931); test: Inhibition by galectin-3-binding inhibiting sugar of galectin-3-promoted collagen type IV production by rat mesangium cells; conditions: 0.4 μg/ml galectin-3, 0.25-2 mM LNFP-I, day 2, FIG. 6
galectin-3, sequence (P17931 whole entry, species assumed): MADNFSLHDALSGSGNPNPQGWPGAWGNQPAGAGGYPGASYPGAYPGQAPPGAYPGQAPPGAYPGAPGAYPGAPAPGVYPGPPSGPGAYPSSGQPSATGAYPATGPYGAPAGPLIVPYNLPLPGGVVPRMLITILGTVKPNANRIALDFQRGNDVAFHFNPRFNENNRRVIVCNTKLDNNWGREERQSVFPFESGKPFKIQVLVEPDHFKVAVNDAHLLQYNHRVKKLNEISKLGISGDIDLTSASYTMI
Procedure: Rat mesangium cells were separated in a similar manner to that described in Example 3. The separated rat mesangium cells were cultured at 37° C. in the presence of 5% CO2 in the wells of a 96-well plate using an essential medium (DMEM/F12 (1:1) culture medium containing 60 μg/ml penicillin, 100 μg/ml streptomycin, manufactured by Gibco BRL) supplemented with 10% fetal bovine serum. […] On day 2 after the addition of galectin-3 and LNFP-I, the amount of type IV collagen accumulated in the culture liquid of each well was measured using a sandwich ELISA method that employed a goat anti-type IV collagen antibody (Chemicon) as an immobilized antibody and a biotin-labeled goat anti-type IV collagen antibody (Chemicon) as a primary antibody. The amount of type IV collagen in the culture medium of each well was normalized by dividing it by the amount of the living cells in each well determined in a similar manner to that described in Example 4.

Substance	cellular death of the rat mesangium cells (amount of surviving cells) (rat mesangium cells [1])	production and/or accumulation of type IV collagen in culture liquid, normalized to living cells (rat mesangium cells [2])	suppression of galectin-3-promoted production and/or accumulation of type IV collagen (galectin-3)
galectin-3: protein of about 30 Kd belonging to the family of β-galactoside binding protein; a lectin	suppress the cellular death	promotes the production and/or the accumulation of type IV collagen	
lacto-n-fucopentaose I			suppresses the promotion of the production and/or the accumulation of type IV collagen

Reference: patent publication US20080219973A1, “Pharmaceutical Composition Having Inhibitory Effect on Overproduction and Accumulation of Extracellular Matrix” (TEIJIN LIMITED, priority 1998, published 2008)
